Test results from patent US7795290B2 (Genentech, Inc., priority 2004, dated 2010).

Biological target: T1, AKT1 (Homo sapiens, UniProt P31749)
T1 construct: purchased Upstate 14-276
Test: HTS ATP-utilizing enzyme assay, off-chip mobility-shift (Caliper HTS 250)
Assay type: biochemical
Conditions: kinase named = inhibitory activity/selectivity; test compound 10 μM; active = greater than three-sigma from mean
Outline: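 AKT1 activity was measured by off-chip mobility shift (Caliper HTS 250) as the ratio of peptide substrate to phosphorylated product. Test compound was at 10 μM, with 2.5 h incubation at 20–22° C. EDTA wells served as 100% control and DMSO wells as 0%. Hits were called at three-sigma limits.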

T1 sequence (P31749 whole entry): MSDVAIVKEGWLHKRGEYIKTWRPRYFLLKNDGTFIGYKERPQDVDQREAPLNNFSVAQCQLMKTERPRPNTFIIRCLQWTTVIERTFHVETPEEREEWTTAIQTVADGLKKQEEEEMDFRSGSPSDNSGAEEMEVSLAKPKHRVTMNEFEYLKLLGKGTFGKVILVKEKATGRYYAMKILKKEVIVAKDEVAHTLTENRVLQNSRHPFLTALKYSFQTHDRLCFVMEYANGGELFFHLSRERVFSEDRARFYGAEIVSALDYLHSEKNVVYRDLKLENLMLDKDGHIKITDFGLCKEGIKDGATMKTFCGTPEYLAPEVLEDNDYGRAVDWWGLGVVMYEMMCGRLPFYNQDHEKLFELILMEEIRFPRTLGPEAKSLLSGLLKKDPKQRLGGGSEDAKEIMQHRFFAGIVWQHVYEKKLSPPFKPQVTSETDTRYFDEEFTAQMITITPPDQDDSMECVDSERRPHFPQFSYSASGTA

Activity, AKT1:
COc1ccc(OC)c(-c2csc(N(CCCN3CCN(C)CC3)C(=O)c3cccs3)n2)c1 [N-(4-(2,5-dimethoxyphenyl)thiazol-2-yl)-N-(3-(4-methylpiperazin-1-yl)propyl)thiophene-2-carboxamide]
CS(=O)(=O)Nc1cccc(NC(=O)c2csc(N(CCCN3CCOCC3)C(=O)c3cccs3)n2)c1 [N-(3-(methylsulfonamido)phenyl)-2-(N-(3-morpholinopropyl)thiophene-2-carboxamido)thiazole-4-carboxamide]
O=C(CCN1CCCCC1)NCCCN(C(=O)c1cccs1)c1nc(-c2cc3ccccc3o2)cs1 [N-(4-(benzofuran-2-yl)thiazol-2-yl)-N-(3-(3-(piperidin-1-yl)propanamido)propyl)thiophene-2-carboxamide]
O=C(c1cccs1)N(CCCN1CCOCC1)c1nc(C(F)(F)F)cs1 [N-(3-morpholinopropyl)-N-(4-(trifluoromethyl)thiazol-2-yl)thiophene-2-carboxamide]
COc1cccc(-c2csc(N(CCCN3CCOCC3)C(=O)c3cccs3)n2)c1 [N-(4-(3-methoxyphenyl)thiazol-2-yl)-N-(3-morpholinopropyl)thiophene-2-carboxamide]
O=C(c1ccccc1)N(CCCN1CCOCC1)c1nc(-c2ccccc2)cs1 [N-(3-morpholinopropyl)-N-(4-phenylthiazol-2-yl)benzamide]
COC(=O)CNC(=O)CCN(C(=O)c1cccs1)c1nc(-c2cc3ccccc3o2)cs1 [methyl 2-(3-(N-(4-(benzofuran-2-yl)thiazol-2-yl)thiophene-2-carboxamido)propanamido)acetate]
CN(C)CCN1CCN(C(=O)CCCN(C(=O)c2cccs2)c2nc(-c3cc4ccccc4o3)cs2)CC1 [N-(4-(benzofuran-2-yl)thiazol-2-yl)-N-(4-(4-(2-(dimethylamino)ethyl)piperazin-1-yl)-4-oxobutyl)thiophene-2-carboxamide]
Cc1cc(-c2csc(N(CCCN3CCOCC3)C(=O)c3cccs3)n2)ccc1Cl [N-(4-(4-chloro-3-methylphenyl)thiazol-2-yl)-N-(3-morpholinopropyl)thiophene-2-carboxamide]
O=C(NCCN1CCOCC1)c1ccc(-c2csc(N(CCCN3CCOCC3)C(=O)c3cccs3)n2)cc1 [N-(4-(4-(2-morpholinoethylcarbamoyl)phenyl)thiazol-2-yl)-N-(3-morpholinopropyl)thiophene-2-carboxamide]
O=C(CCCN(C(=O)c1cccs1)c1nc(-c2cc3ccccc3o2)cs1)NCc1ccccn1 [N-(4-(benzofuran-2-yl)thiazol-2-yl)-N-(4-oxo-4-(pyridin-2-ylmethylamino)butyl)thiophene-2-carboxamide]
O=C(O)c1cccc(-c2csc(N(CCCN3CCOCC3)C(=O)c3cccs3)n2)c1 [3-(2-(N-(3-morpholinopropyl)thiophene-2-carboxamido)thiazol-4-yl)benzoic acid]
O=C(CCN(C(=O)c1cccs1)c1nc(-c2cc3ccccc3o2)cs1)NCCOc1ccccc1 [N-(4-(benzofuran-2-yl)thiazol-2-yl)-N-(3-oxo-3-(2-phenoxyethylamino)propyl)thiophene-2-carboxamide]
CN(C)S(=O)(=O)N1CCN(C(=O)CCCN(C(=O)c2cccs2)c2nc(-c3cc4ccccc4o3)cs2)CC1 [N-(4-(benzofuran-2-yl)thiazol-2-yl)-N-(4-(4-(N,N-dimethylsulfamoyl)piperazin-1-yl)-4-oxobutyl)thiophene-2-carboxamide]
O=C(N1CCOCC1)N1CCN(CCCN(C(=O)c2cccs2)c2nc(-c3cc4ccccc4o3)cs2)CC1 [N-(4-(benzofuran-2-yl)thiazol-2-yl)-N-(3-(4-(morpholine-4-carbonyl)piperazin-1-yl)propyl)thiophene-2-carboxamide]
